Results: patent publication US20250064773A1, “TARGETING ERO1 ALPHA WITH AURONE DERIVATIVES” (West Virginia University Board of Governors on behalf of …, priority 2021, published 2025)

Target: T1, ERO1α (Homo sapiens, UniProt Q96HE7)
T1 construct: endogenous in cells; host or cells: PC-9
T1 sequence (Q96HE7 24-468): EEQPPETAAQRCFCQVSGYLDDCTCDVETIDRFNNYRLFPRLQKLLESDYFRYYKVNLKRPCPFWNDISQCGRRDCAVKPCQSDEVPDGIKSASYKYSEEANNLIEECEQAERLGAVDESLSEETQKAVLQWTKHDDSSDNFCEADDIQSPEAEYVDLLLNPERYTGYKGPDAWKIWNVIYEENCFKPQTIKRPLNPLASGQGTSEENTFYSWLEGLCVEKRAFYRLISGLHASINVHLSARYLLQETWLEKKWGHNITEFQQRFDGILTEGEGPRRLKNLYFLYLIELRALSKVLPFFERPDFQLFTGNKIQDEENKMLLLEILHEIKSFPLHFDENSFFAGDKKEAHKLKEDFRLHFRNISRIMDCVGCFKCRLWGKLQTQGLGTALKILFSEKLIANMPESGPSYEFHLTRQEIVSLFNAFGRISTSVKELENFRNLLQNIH
Assay: Cellular thermal shift assay (CETSA) in PC-9 cells, ERO1α
Format: cell-based
Details: 100 μM, 1 hour at 37° C.
Description: To date activity of T151742 towards other flavoenzymes has not been identified at this time. We utilized the Cellular Thermal Shift Assay (CETSA) to determine target engagement of T151742 in vitro using the non-small cell lung cancer (NSCLC) cell line PC-9. The EGFR driven PC-9 cell line was chosen as new treatment strategies are needed in EGFR driven NSCLC as most patients relapse and become resistant to current targeted therapies with development of further mutations such as T790M, C797S as well as emergence of EGFR independent tumors^42, 43. […] First, we determined the aggregation temperature (Tagg) of ERO1α, ERO1β, and LSD-1, which are all FAD dependent enzymes and potential in vitro targets of T15742. […]
Upon addition of T151742, Tagg was quantified for ERO1α, ERO1β, and LSD-1. Quantification of the average of n=3 independent experiments based on western blot analysis for ERO1α, ERO1β, and LSD-1. […] Cellular viability was determined by MTT assay. n=3 independent experiments performed in quadruplicates. ****p<0.0001; by two-way ANOVA.
Cell Lines: PC-9 cell line used was obtained from Sigma Aldrich and grown in RPMI 1640 medium with 10% fetal bovine serum and 1% penicillin/streptomycin. […] Plate was then read on the BioTek Cytation 5 at 530/590 nm. […]

Q: For `CN(C)c1ccc(/C=C2\Oc3cc(O)ccc3C2=O)cc1` [Compound T151742], which “Tagg for ERO1α” value is on record?
A: Its value is > 60 °C.

Q: What about the “shift of Tagg for ERO1α” value of the same molecule?
A: Its value is ~6 degrees.
